Common to all, as to assay: Checkerboard assay (FIC index)
Test [1] deals with E. faecalis. The test is classed as cell-based, Enterococcus faecalis. The conditions noted are these: antibiotic combined with PEP35. Here is the method:
(§1) The checkerboard assays were carried out as described by Eliopoulos and Moellering (Chapter 9) in Antibiotic in Laboratory Medicine, Lorian Ed. 1996 as well as Bonapace et al. Diagnostic Microbiology and Infectious Diseases 2002; 44:363-366 and Bonapace et al. Diagnostic Microbiology and Infectious Diseases 2000; 38:43-50. In brief, checkerboard assays were performed in 96 well microtitre trays using an 8-by-8 well configuration. […] 96-well custom designed microtitre plates contained 100 ul/well of cation adjusted Mueller-Hinton broth (eg. for Enterobacteriaceae) with or without lysed horse blood (2-5% V/V) [eg. for S. pneumoniae] and were inoculated to achieve a final concentration of approximately 5×10^5 CFU/ml and incubated in ambient air for 24 hours prior to reading. Colony counts were performed periodically to confirm inocula. Quality control was performed every two weeks using a variety of ATCC QC organisms including; S. pneumoniae 49619, S. aureus 29213, E. faecalis 29212, E. coli 25922 and P. aeruginosa 27853. For all antimicrobials as well as PEP35, CLSI criteria was used.
(§2) The fractional inhibitory concentration index (FIC index) was used to interpret synergy, antagonism or additivity/indifference. FIC index=FIC of drug A+FIC of drug B where:
(§3) The FIC of drug A and drug B is calculated as follows, FIC drug A=MIC of drug A in combination/MIC of drug A alone and FIC of drug B=MIC of drug B in combination/MIC of drug B alone. Synergy is defined as FIC index ≦0.5, additivity/indifference FIC >0.5-4 and antagonism FIC index >4.
(§4) Antimicrobials used included PEP35, cefazolin, ceftriaxone, vancomycin, linezolid, tigecycline and daptomycin versus Gram-positive cocci and PEP35, gentamicin, levofloxacin, piperacillin/tazobactam, meropenem and colistin (Polymyxin E) versus Gram-negative bacilli. These agents were obtained as laboratory grade powders from their respective manufacturers. Stock solutions were prepared and dilutions made as described by the Clinical Laboratory Standards Institute (2005 CLSI).
(§5) Organisms included Gram-positive cocci (2 strains of each): Methicillin-susceptible Staphylococcus aureus (MSSA), community-associated (CA) and healthcare-associated (HA) methicillin-resistant Staphylococcus aureus (MRSA), vancomycin-intermediate Staphylococcus aureus (VISA), vancomycin-resistant Staphylococcus aureus (VRSA), methicillin-resistant Staphylococcus epidermidis (MRSE), Streptococcus pyogenes, Streptococcus agalactiae, Streptococcus pneumoniae, Enterococcus faecalis, Enterococcus faecium and vancomycin-resistant enterococcus (VRE). Gram-negative bacilli tested (2 strains of each) included: E. coli, Pseudomonas aeruginosa, Klebsiella pneumoniae, K. oxytoca, Enterobacter cloacae, P. mirabilis and Stenotrophomonas maltophilia. MIC testing, following two subcultures from frozen stock were determined by the CLSI 2005 approved broth microdilution method.

Test [2] deals with S. agalactiae. Type of test: cell-based, Streptococcus agalactiae. The following applies: antibiotic combined with PEP35. Here is the method: as §1, §2, §3, §4, §5
The test system of test [3] is VISA. Type of test: cell-based, Staphylococcus aureus. Here is the method: (§6) Checkerboard assays were carried out as described by Bonapace et al.
as §1, with “Diagnostic” for “The checkerboard assays were carried out as described by Eliopoulos and Moellering (Chapter 9) in Antibiotic in Laboratory Medicine, Lorian Ed. 1996 as well as Bonapace et al. Diagnostic”, “2002; 44:363-366.” for “2002; 44:363-366 and Bonapace et al. Diagnostic Microbiology and Infectious Diseases 2000; 38:43-50.”, “27853. […] All peptides were assessed for synergy with β-lactams and vancomycin.” for “27853.”, “as the peptides,” for “as PEP35,”, “criteria were” for “criteria was”
as §2
(§7) The FIC of drug A and drug B was calculated as follows, FIC drug A=MIC of drug A in combination/MIC of drug A alone and FIC of drug B=MIC of drug B in combination/MIC of drug B alone. Synergy was defined as FIC index ≦0.5, additivity/indifference defined as a FIC between 0.5 and 4 and antagonism defined as an FIC index >4.
as §1, §3, §4
(§8) Organisms included Gram-positive cocci (2 strains of each): Methicillin-susceptible Staphylococcus aureus (MSSA), community-associated (CA) and healthcare-associated (HA) methicillin-resistant Staphylococcus aureus (MRSA), vancomycin-intermediate Staphylococcus aureus (VISA), vancomycin-resistant Staphylococcus aureus (VRSA), methicillin-resistant Staphylococcus epidermidis (MRSE), Streptococcus pyogenes, Streptococcus agalactiae, Streptococcus pneumoniae, Enterococcus faecalis, Enterococcus faecium and vancomycin-resistant enterococcus (VRE). […]

For test [4], the system named is MSSA. Type of test: cell-based, Staphylococcus aureus. On the procedure:
as §6
as §1, with “Diagnostic” for “The checkerboard assays were carried out as described by Eliopoulos and Moellering (Chapter 9) in Antibiotic in Laboratory Medicine, Lorian Ed. 1996 as well as Bonapace et al. Diagnostic”, “2002; 44:363-366.” for “2002; 44:363-366 and Bonapace et al. Diagnostic Microbiology and Infectious Diseases 2000; 38:43-50.”, “27853. […] All peptides were assessed for synergy with β-lactams and vancomycin.” for “27853.”, “as the peptides,” for “as PEP35,”, “criteria were” for “criteria was”
as §2, §7, §1, §3, §4, §8

The test system of test [5] is S. pyogenes. The test is classed as cell-based, Streptococcus pyogenes. The following applies: antibiotic combined with PEP35. On the procedure:
as §1, §2, §3, §4, §5

[6] abbreviates: antibiotic combined with PEP35, VISA 92.
Where [7] appears, read: antibiotic combined with PEP35, VISA 95.
The mark [8] stands for this setting: antibiotic combined with PEP35, VISA 96.
Where [9] appears, read: antibiotic combined with PEP35, MSSA 79333.
[10] abbreviates: antibiotic combined with PEP35, MSSA 83424.

The structures appear in SMILES notation. Values joined by “and” are separate entries in the source; they are usually repeats but may differ in a detail not shown here. Equal values may be shown once. Marks after values point to notes of the source that are not given here.

As for `CC(=O)NC[C@H]1CN(c2ccc(N3CCOCC3)c(F)c2)C(=O)O1` [Linezolid, linezolid], the “Avg ΣFIC (range)” value in test [1] (E. faecalis 70468) is on record as 0.99 (0.62-1.25); in test [1] (E. faecalis 78145), 0.88 (0.62-1.06); in test [2] (S. agalactiae 80870 (MHB)) it was 1.1 (1.0-1.25); in test [2] (S. agalactiae 81262 (MHB)), 0.91 (0.53-1.25); in test [3] (setting [6]) it was 0.99 (0.75-1.12); in test [3] (setting [7]) it was 0.98 (0.62-1.25). In addition, the “Avg ΣFIC (range)” value in test [3] (setting [8]) is reported as 0.77 (0.56-1.06); in test [4] (setting [9]), 1.05 (0.75-1.25); in test [4] (setting [10]) it was 0.74 (0.515-1.06); in test [5] (S. pyogenes 77765 (MHB)) it was 1.05 (0.75-1.25); in test [5] (S. pyogenes 79531 (MHB)), 1.19 (1.03-1.5).

On to `C[C@@H](O)[C@H]1C(=O)N2C(C(=O)O)=C(S[C@@H]3CN[C@H](C(=O)N(C)C)C3)[C@H](C)[C@H]12` [Meropenem], for which the “Avg ΣFIC (range)” value in test [3] (setting [8]) is on record as 0.41; in test [3] (β-lactam combined with HybPEP35-1, VISA 96), 0.45; in test [3] (β-lactam combined with PEP-52, VISA 96), >1*; in test [3] (β-lactam combined with Scrambled PEP35, VISA 96), 0.45; in test [4] (setting [9]), 0.52; in test [4] (β-lactam combined with HybPEP35-1, MSSA 79333) it was 1.11. Further, the “Avg ΣFIC (range)” value in test [4] (β-lactam combined with PEP-52, MSSA 79333) is recorded as >1*; in test [4] (β-lactam combined with Scrambled PEP35, MSSA 79333) it was 1.11.

Turning to `CN(C)c1cc(NC(=O)CNC(C)(C)C)c(O)c2c1C[C@H]1C[C@H]3[C@H](N(C)C)C(O)=C(C(N)=O)C(=O)[C@@]3(O)C(O)=C1C2=O` [Tigecycline, tigecycline], the “Avg ΣFIC (range)” value in test [1] (E. faecalis 70468) was 0.82 (0.5-1.06); in test [1] (E. faecalis 78145) it was 0.9 (0.5-1.12); in test [2] (S. agalactiae 80870 (MHB)), 1.10 (1.0-1.25); in test [2] (S. agalactiae 81262 (MHB)) it was 1.05 (0.75-1.25); in test [3] (setting [6]), 0.56 (0.31-1.06); in test [3] (setting [7]), 0.46 (0.37-0.56) and 0.43 (0.31-0.56). For the same compound, the “Avg ΣFIC (range)” value in test [3] (setting [8]) is recorded as 0.91 (0.62-1.12); in test [4] (setting [9]) it was 0.99 (0.62-1.5); in test [4] (setting [10]) it was 0.85 (0.5-1.12); in test [5] (S. pyogenes 77765 (MHB)) it was 1.1 (1.0-1.25); in test [5] (S. pyogenes 79531 (MHB)) it was 1.1 (1.0-1.25).

Regarding `CN[C@H](CC(C)C)C(=O)N[C@H]1C(=O)N[C@@H](CC(N)=O)C(=O)N[C@H]2C(=O)N[C@H]3C(=O)N[C@H](C(=O)N[C@H](C(=O)O)c4cc(O)cc(O)c4-c4cc3ccc4O)[C@H](O)c3ccc(c(Cl)c3)Oc3cc2cc(c3O[C@@H]2O[C@H](CO)[C@@H](O)[C@H](O)[C@H]2O[C@H]2C[C@](C)(N)[C@H](O)[C@H](C)O2)Oc2ccc(cc2Cl)[C@H]1O` [Vancomycin], the “Avg ΣFIC (range)” value in test [1] (E. faecalis 70468) is 1.1 (1-1.25); in test [1] (E. faecalis 78145) it was 1.19 (1.03-15); in test [2] (S. agalactiae 80870 (MHB)), 1.05 (0.75-1.25); in test [2] (S. agalactiae 81262 (MHB)), 1.1 (1.0-1.25); in test [3] (setting [6]) it was 1.1 (1.0-1.25); in test [3] (setting [7]), 1.1 (1.03-1.25). Further, the “Avg ΣFIC (range)” value in test [3] (setting [8]) was 0.88 (0.53-0.125); in test [4] (setting [9]), 1.11 (1.0-1.25); in test [4] (setting [10]) it was 1.19 (1.03-1.5); in test [5] (S. pyogenes 77765 (MHB)) it was 1.09 (1.0-1.25); in test [5] (S. pyogenes 79531 (MHB)), 1.27 (1.015-2.5).

(Values after patent US9751919B2, “Antimicrobial compositions comprising a hyaluronic acid binding peptide and a β-lactam antibiotic” (priority 2012, dated 2017).)
